Read-outs that look alike come from different tables or passages of the source. One block for each molecule: values may come before it.
Columns and labels:
[1] = biological target: T1, hT1R1/hT1R3 umami receptor expressed in an HEK293 cell line (Homo sapiens, UniProt Q7RTX0+Q7RTX1); experiment: Umami taste enhancement activity assay (EC50 ratio vs. MSG, FLIPR); type: cell-based
T1 construct: expressed in transfected cells; host or cells: HEK293 cell line derivative, hT1R1/hT1R3-HEK293-Gα15, clone I-17, mifepristone-induced
T1 sequence (Q7RTX1 21-841): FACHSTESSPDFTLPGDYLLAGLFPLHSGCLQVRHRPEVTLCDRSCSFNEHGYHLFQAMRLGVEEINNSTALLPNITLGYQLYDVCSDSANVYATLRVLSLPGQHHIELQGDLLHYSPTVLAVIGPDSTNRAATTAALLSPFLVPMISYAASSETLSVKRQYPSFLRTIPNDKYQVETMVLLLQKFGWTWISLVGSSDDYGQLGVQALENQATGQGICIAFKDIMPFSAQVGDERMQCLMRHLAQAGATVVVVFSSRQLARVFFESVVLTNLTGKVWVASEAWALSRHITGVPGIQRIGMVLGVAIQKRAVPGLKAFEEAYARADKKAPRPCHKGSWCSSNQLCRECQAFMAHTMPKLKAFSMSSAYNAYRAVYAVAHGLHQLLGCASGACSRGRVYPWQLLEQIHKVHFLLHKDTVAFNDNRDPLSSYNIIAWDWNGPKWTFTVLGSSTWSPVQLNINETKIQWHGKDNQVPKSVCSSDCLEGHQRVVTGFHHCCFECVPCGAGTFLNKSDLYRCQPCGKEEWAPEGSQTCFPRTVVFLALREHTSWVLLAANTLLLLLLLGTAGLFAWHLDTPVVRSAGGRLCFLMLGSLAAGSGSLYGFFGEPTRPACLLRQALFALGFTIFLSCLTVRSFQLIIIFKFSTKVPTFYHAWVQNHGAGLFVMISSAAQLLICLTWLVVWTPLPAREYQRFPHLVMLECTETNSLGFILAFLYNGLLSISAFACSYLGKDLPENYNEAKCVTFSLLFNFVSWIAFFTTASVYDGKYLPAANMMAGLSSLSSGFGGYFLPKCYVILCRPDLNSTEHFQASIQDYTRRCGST
T1 sequence (Q7RTX0 21-852): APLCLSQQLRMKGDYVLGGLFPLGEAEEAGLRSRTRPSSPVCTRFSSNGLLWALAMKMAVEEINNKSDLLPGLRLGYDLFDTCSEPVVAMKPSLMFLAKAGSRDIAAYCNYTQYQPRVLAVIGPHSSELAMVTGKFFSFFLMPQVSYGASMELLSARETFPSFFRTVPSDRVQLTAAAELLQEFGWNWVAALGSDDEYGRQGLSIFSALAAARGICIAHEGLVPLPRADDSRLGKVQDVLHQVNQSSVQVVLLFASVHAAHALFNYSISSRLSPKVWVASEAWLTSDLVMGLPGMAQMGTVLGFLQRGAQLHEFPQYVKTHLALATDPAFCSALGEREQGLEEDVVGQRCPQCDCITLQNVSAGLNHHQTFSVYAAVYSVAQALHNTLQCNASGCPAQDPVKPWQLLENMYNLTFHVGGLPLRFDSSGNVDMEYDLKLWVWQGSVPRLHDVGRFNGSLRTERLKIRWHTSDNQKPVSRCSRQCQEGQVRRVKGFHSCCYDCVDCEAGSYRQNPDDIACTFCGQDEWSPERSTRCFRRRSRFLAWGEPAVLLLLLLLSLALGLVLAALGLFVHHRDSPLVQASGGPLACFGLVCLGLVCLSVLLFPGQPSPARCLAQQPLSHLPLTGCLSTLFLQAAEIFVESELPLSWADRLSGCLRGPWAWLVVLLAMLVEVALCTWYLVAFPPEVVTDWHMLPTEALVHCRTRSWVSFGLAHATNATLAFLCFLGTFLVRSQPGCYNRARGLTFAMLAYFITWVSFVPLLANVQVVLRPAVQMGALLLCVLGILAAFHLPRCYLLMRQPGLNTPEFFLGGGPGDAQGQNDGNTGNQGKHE
Description: A series of measurements of the dose response is run in solutions comprising MSG alone, then a second dose response is run with MSG in combination with predetermined amounts of a candidate compound of Formula (I) at the same time.
Typical compound concentrations tested were 30 μM, 10 μM, 3 μM, 1 μM, 0.3 μM, 0.1 μM and 0.03 μM. The relative efficacy of compounds of Formula (I) at enhancing the receptor was determined by calculating the magnitude of a shift in the EC50 for monosodium glutamate. Enhancement was defined as a ratio (EC50R) corresponding to the EC50 of monosodium glutamate, determined in the absence of the test compound, divided by the EC50 of monosodium glutamate, determined in the presence of the test compound.
Stated alternatively, “EC50 ratio” as compared to MSG is calculated based on the following definitions: EC50 Ratio vs. MSG=EC50 (MSG)/EC50 (MSG+[Compound]) • wherein “[compound]” refers to the concentration of the compound of Formula (I) used to elicit (or enhance or potentiate) the MSG dose response.

[2] = biological target: T1, hT1R1/hT1R3 umami receptor expressed in an HEK293 cell line; experiment: In vitro hT1R1/hT1R3 umami taste receptor activation assay (FLIPR, dose response); type: cell-based
Description: Activity was determined using an automated fluorometric imaging assay on a FLIPR instrument ([…], Molecular Devices, Sunnyvale, Calif.) (designated FLIPR assay). […] After replacement with 25 μl D-PBS, stimulation was performed in the FLIPR instrument and at room temperature by the addition of 25 μl D-PBS supplemented with different stimuli at concentrations corresponding to twice the desired final level. Receptor activity was quantified by determining the maximal fluorescence increases (using a 480 nm excitation and 535 nm emission) after normalization to basal fluorescence intensity measured before stimulation.
Activities were normalized to the response obtained with 60 mM monosodium glutamate, a concentration that elicits maximum receptor response.

un-induced I-17 cells = experiment: FLIPR assay on un-induced I-17 cells (receptor dependency control); type: cell-based; conditions: un-induced I-17 cells (no mifepristone)
Description: In order to determine the dependency of hT1R1/hT1R3 for the cell response to different stimuli, selected compounds were subjected to a similar analysis on I-17 cells that had not been induced for receptor expression with mifepristone (designated as un-induced I-17 cells). […] Compounds were presented to un-induced umami cells at […]—or three times the maximum stimulation used in the dose-response analysis.

melting point: 112 to 114 °C
EC50 ratio (enhanced the effectiveness of monosodium glutamate) ([1]; compound present at 0.01 μM): 4.3
EC50 ([2]; read-out: EC50 for activation of a hT1R1/hT1R3 umami receptor expressed in an HEK293 cell line): 90 nM
SMILES: Cc1ccc(-c2nc(SCc3ccccn3)n[nH]2)c(C)c1 [Example 3, 2-((5-(2,4-dimethylphenyl)-1H-1,2,4-triazol-3-ylthio)methyl)pyridine]

SMILES: N[C@@H](CCC(=O)O)C(=O)[O-].[Na+] [monosodium glutamate]
functional response in the FLIPR assay (un-induced I-17 cells): do not show any functional response

Ec50 ratio (vs. MSG) ([1]; Table A, @ 0.01 μM compound): 1.9
EC50 ([2]; Table A, triazoles, read-out: Umami EC50): 180 nM
SMILES: COc1cccc(-c2n[nH]c(SCc3ccccn3)n2)c1OC [Example A2, 2-((5-(2,3-dimethoxyphenyl)-2H-1,2,4-triazol-3-ylthio)methyl)pyridine]
